Measured values published in article PMC7828518 (2021).

Assays:
[1] = tested on: ds17 (DNA, duplex) GGGTTACTACGAACTGG/CCAGTTCGTAGTAACCC; assay: equilibrium dialysis (noncompetition); settings: K+ (100 mM KCl, 10 mM potassium phosphate), pH 7.2, 22 °C, apparent, per base pair (75 μM monomeric units), 2 μM compound
[2] = tested on: Tel22 (DNA, G4) AGGGTTAGGGTTAGGGTTAGGG; assay: equilibrium dialysis (noncompetition); settings: K+ (100 mM KCl, 10 mM potassium phosphate); pH 7.2, 22 °C; apparent; per tetrad (75 μM monomeric units); 2 μM compound; per base
[3] = tested on: Tel22 (DNA, G4) AGGGTTAGGGTTAGGGTTAGGG; assay: circular dichroism titration; settings: K+ (10 mM KCl), Li+ (90 mM LiCl); 10 mM lithium cacodylate pH 7.3, 25 °C; 4 μM DNA, ratios 1:1 to 1:5
[4] = tested on: F10T (DNA, hairpin, Sp18 linker joins 3' end of first TATAGCTATA to 5' end of second (one molecule)) TATAGCTATA/TATAGCTATA; assay: FRET DNA melting; settings: Li+ (100 mM LiCl) per methods; Figure 3 legend: 10 mM KCl, 90 mM LiCl; 10 mM lithium cacodylate pH 7.3; up to 10 μM compound, 0.2 μM DNA
[5] = tested on: F21T (DNA, G4) GGGTTAGGGTTAGGGTTAGGG; assay: FRET DNA melting; settings: K+ (10 mM KCl), Li+ (90 mM LiCl); 10 mM lithium cacodylate pH 7.3; 5 μM compound, 0.2 μM DNA

Kapp [1]: 0.029 ± 0.004 × 10^6 M^-1
Kapp [2]: 2.3 ± 0.5 × 10^6 M^-1
binding [3]: yes
∆Tm [4]: ~ 0 °C
∆Tm [5]: 7 ± 1 °C
SMILES: N=C(N)N/N=C/c1ccc2ccc3ccc(/C=N/NC(=N)N)nc3c2n1
